# Results published in patent publication US9303042B2, “Triazolothienopyrimidine compound inhibitors of urea transporters and methods of using inhibitors” (The Regents of the University of California, priority 2012, dated 2016).
# Legend:
# TMEM16A = biological target: T1, TMEM16A (Homo sapiens, UniProt Q5XXA6); assay: TMEM16A calcium-activated chloride conductance by short-circuit current; format: cell-based; details: 10 μM, ATP-activated
# T1 construct: expressed in transfected cells
# T1 sequence (Q5XXA6 1-986): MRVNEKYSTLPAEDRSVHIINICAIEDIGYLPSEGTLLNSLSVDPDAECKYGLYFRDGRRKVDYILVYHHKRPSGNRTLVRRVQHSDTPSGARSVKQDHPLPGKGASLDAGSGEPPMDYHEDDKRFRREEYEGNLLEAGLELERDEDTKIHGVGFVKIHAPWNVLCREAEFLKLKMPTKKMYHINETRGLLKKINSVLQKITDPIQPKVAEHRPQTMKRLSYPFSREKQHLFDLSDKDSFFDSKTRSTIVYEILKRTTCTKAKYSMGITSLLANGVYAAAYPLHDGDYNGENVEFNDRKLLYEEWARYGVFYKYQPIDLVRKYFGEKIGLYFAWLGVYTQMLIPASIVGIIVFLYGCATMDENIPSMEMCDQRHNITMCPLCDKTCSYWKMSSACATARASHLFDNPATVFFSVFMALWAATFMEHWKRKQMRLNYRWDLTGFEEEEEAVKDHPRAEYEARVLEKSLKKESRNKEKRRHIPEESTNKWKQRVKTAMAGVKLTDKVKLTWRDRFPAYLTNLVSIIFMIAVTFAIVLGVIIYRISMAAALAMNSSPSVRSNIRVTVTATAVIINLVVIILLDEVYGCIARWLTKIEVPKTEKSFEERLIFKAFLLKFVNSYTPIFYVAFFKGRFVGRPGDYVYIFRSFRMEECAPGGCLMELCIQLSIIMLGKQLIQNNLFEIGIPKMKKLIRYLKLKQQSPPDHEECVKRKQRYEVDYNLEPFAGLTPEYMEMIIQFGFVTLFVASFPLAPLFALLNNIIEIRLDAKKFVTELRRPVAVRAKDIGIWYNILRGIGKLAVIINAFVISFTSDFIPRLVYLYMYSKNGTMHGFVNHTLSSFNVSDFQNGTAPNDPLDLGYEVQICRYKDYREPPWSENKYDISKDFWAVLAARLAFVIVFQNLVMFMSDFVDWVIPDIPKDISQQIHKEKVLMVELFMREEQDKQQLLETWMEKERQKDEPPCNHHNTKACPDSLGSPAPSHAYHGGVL
# Description: CFTR chloride conductance was measured by short-circuit current analysis in Fisher rat thyroid (FRT) cells stably expressing CFTR, as described (see, e.g., Ma et al., J. Biol. Chem. (2002), supra). CFTR chloride conductance was stimulated by forskolin and inhibited by a thiazolidinone compound that inhibits CFTR (CFTRinh-172). TMEM16A calcium-activated chloride conductance was measured by short-circuit current analysis in FRT cells stably expressing TMEM16A, as described (see, e.g., Namkung et al., J. Biol. Chem. 286:2365-2374, 2011. TMEM16A was stimulated by ATP and inhibited by tannic acid (100 μM). Cytotoxicity was measured in MDCK using the MTT assay [3(4,5-dimethyl-thiazol-2-yl)-2,5-diphenyl tetrazolium bromide] by standard procedures.
# AQP1-null erythrocytes = assay: Erythrocyte osmotic water permeability by stopped-flow light scattering, AQP1-null erythrocytes; format: cell-based, mouse; details: 100 mM sucrose gradient, 10 °C
# Description: (§1) Erythrocyte urea and water permeabilities were measured by stopped-flow light scattering using a Hi-Tech Sf-51 instrument (Wiltshire, UK). […] Urea permeability and percentage inhibition were computed as described (see, e.g., Levin et al., FASEB J. supra, 2007)). In some experiments, different urea gradients (25-200 mM) were used, or inhibitor was added only to the erythrocyte-containing or urea-containing solutions. In some experiments an outwardly directed urea gradient was used in which erythrocytes were incubated for 30 min with PBS containing specified urea and mixed in the stopped-flow apparatus with PBS. In reversibility experiments, erythrocytes were incubated for 30 min with inhibitor, washed three times to remove inhibitor, and urea transport assayed. Osmotic water permeability was measured using a 100 mM gradient of sucrose.
# (§2) Erythrocyte osmotic water permeability was measured by stopped-flow light scattering. […] Life Sci. 52:474-78 (2009)).
# AQP1 = biological target: T2, AQP1 (Mus musculus, UniProt Q02013); assay: Erythrocyte osmotic water permeability by stopped-flow light scattering, wild type erythrocytes; format: cell-based; details: 100 mM sucrose gradient, 10 °C
# T2 construct: endogenous in cells; host or cells: erythrocytes of wild-type CD1 mice
# T2 sequence (Q02013 1-269): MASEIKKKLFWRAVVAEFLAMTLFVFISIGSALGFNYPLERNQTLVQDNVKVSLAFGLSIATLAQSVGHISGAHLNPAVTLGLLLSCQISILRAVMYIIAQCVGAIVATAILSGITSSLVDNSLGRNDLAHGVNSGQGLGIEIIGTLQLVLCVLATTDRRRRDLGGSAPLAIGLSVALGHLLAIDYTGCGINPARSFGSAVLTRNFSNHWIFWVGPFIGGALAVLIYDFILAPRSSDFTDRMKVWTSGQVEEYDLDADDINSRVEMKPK
# Description: as §1, §2
# mice = assay: Urinary concentration in mice; format: in vivo, mouse
# Description: In some studies, mice were placed on low, normal or […] diets (4%, 20% or 40% casein, Harlan Labs.) for 1 week prior study of dDAVP effects. […] Urea concentration was determined by a colorimetric enzymatic assay as described above. Measurements were also done in the absence of dDAVP in which urine was collected during free access to food and water. […]
# [1] = free access to food and water, no dDAVP, 300 μg
structure (smiles),measurement,setting,value
"CCc1ccc(S(=O)(=O)c2nnn3c2nc(NCc2cccs2)c2sccc23)cc1 [UTBinh-14, [3-(4-Ethyl-benzenesulfonyl)-thieno[2,3-e][1,2,3]triazolo[1,5-a]pyrimidin-5-yl]-thiophen-2-ylmethylamine]",inhibition of TMEM16A chloride conductance,TMEM16A,no significant inhibition
same,water transport in AQP1-null erythrocytes,AQP1-null erythrocytes,inhibited water transport significantly
same,inhibition of water transport in erythrocytes from wild type mice,AQP1,no significant inhibition
same,"urine osmolality, UT-B knockout mice","mice; 300 μg intraperitoneal, dDAVP",did not significantly reduce
same,"urine urea concentration, UT-B knockout mice","mice; 300 μg intraperitoneal, dDAVP",did not significantly reduce
same,"urine osmolality, wild type mice","mice; 300 μg intraperitoneal, dDAVP 1 h later",significantly reduced
same,"effect on dDAVP-stimulated urinary concentration, low-protein diet","mice; 1 week low-protein diet, 300 μg",little effect
same,urine osmolality,mice; [1],reduced
same,urine urea concentration,mice; [1],reduced
same,urine volume,mice; [1],significantly increased
